Results: PMC12171682, “Saarvienin A—A Novel Glycopeptide with Potent Activity against Drug‐Resistant Bacteria” (Angewandte Chemie (International Ed. in English), 2025)
≈ marks a conversion by molar mass, not a printed value. Where two headings read alike, the source gives them in different places.

Tests used:
[1] = system: S. aureus HG001‐DRSA; details: daptomycin-resistant mutant of HG001; broth microdilution, cation-adjusted Mueller-Hinton Broth II, ~4 × 10⁵ CFU/mL, 37 °C, 24 h; mean of three independent biological replicates, each in technical triplicate
[2] = system: E. coli K12 ΔacrB; details: broth microdilution, cation-adjusted Mueller-Hinton Broth II, ~4 × 10⁵ CFU/mL, 37 °C, 24 h, mean of three independent biological replicates, each in technical triplicate
[3] = system: E. faecalis DSM 12956 (VRE, vanB positive); details: broth microdilution, cation-adjusted Mueller-Hinton Broth II, ~4 × 10⁵ CFU/mL, 37 °C, 24 h; mean of three independent biological replicates, each in technical triplicate
[4] = system: E. faecalis ATCC 29212; details: broth microdilution, 37 °C, 24 h
[5] = system: E. faecium DSM 17050 (VRE, vanA positive); details: broth microdilution, cation-adjusted Mueller-Hinton Broth II, ~4 × 10⁵ CFU/mL, 37 °C, 24 h; mean of three independent biological replicates, each in technical triplicate
[6] = system: E. coli K12 ΔtolC; details: broth microdilution, cation-adjusted Mueller-Hinton Broth II, 37 °C, 24 h, mean of three independent biological replicates, each in technical triplicate
[7] = system: S. aureus N315 (MRSA); details: broth microdilution, cation-adjusted Mueller-Hinton Broth II, ~4 × 10⁵ CFU/mL, 37 °C, 24 h; mean of three independent biological replicates, each in technical triplicate
[8] = system: M. tuberculosis H37Ra ATCC 25177
[9] = system: E. coli WO153 (AB1157, recJ asmB1, ΔtolC); details: broth microdilution, cation-adjusted Mueller-Hinton Broth II, ~4 × 10⁵ CFU/mL, 37 °C, 24 h; mean of three independent biological replicates, each in technical triplicate
[10] = system: S. aureus DSM 11822 (MDR); details: broth microdilution, cation-adjusted Mueller-Hinton Broth II, ~4 × 10⁵ CFU/mL, 37 °C, 24 h; mean of three independent biological replicates, each in technical triplicate
[11] = system: vancomycin‐resistant E. faecium clinical isolates with reduced susceptibility to daptomycin (n = 26); details: 24 h
[12] = system: S. aureus Mu50 (MRSA/VISA); details: broth microdilution, cation-adjusted Mueller-Hinton Broth II, ~4 × 10⁵ CFU/mL, 37 °C, 24 h, mean of three independent biological replicates, each in technical triplicate

CN[C@@]1(C)C[C@H](O[C@@H]2[C@H](O)C[C@H](O[C@H]3[C@H](C)O[C@@H](O[C@H]4[C@H](O[C@H]5[C@H](C)O[C@@H](Oc6ccc(C[C@@H](O)C(=O)N[C@H]7CNC(=O)NC[C@@H](C(=O)N[C@H](Cc8ccccc8)C(=O)O)NC(=O)[C@H]([C@H](C)c8c[nH]c9ccc(Cl)cc89)NC7=O)cc6)C[C@]5(C)N)O[C@@H](C)[C@H](O)[C@H]4O)C[C@]3(C)NC)O[C@H]2C)O[C@@H](C)[C@@H]1OC [Saarvienin A, saarvienin A]
MIC, S. aureus HG001‐DRSA [1]: 1 µg/mL (≈ 0.662 µM) | MIC, E. coli K12 ΔacrB [2]: >64 µg/mL | MIC, E. coli K12 ΔacrB ([2]; listed as 1): non‐susceptible | MIC, E. faecalis DSM 12956 (VRE, vanB positive) [3]: 1 µg/mL (≈ 0.662 µM) | MIC, E. faecalis ATCC29212 ([4]; cation-adjusted Mueller-Hinton Broth II, ~4 × 10⁵ CFU/mL, mean of three independent biological replicates, each in technical triplicate): 2 µg/mL (≈ 1.32 µM) | MIC, E. faecalis ATCC29212 ([4]; reference strain in Table S5, MHB II, daptomycin with 50 µg/mL Ca2+, mean of two independent experiments): 2 µg/mL (≈ 1.32 µM) | MIC, E. faecium DSM 17050 (VRE, vanA positive) [5]: 1 µg/mL (≈ 0.662 µM) | MIC, E. coli K12 ΔtolC (tolC‐deficient) + PMBN ([6]; co‐incubated with sub‐lethal concentrations of polymyxin B nonapeptide (PMBN)): 32 µg/mL | MIC, E. coli K12 ΔtolC ([6]; without PMBN, ~4 × 10⁵ CFU/mL): 64 µg/mL (≈ 42.4 µM) | MIC, S. aureus N315 (MRSA) [7]: 0.5 µg/mL (≈ 0.331 µM) | MIC, M. tuberculosis H37Ra ATCC 25177 [8]: 32 µg/mL (≈ 21.2 µM) | MIC, E. coli WO153 (AB1157, recJ asmB1, ΔtolC) [9]: 2 µg/mL (≈ 1.32 µM) | MIC, S. aureus DSM 11822 (MDR) [10]: 0.5 µg/mL (≈ 0.331 µM) | MIC50 [11]: 0.5 µg/mL (≈ 0.331 µM) | MIC90 [11]: 0.5 µg/mL (≈ 0.331 µM) | MIC Range [11]: 0.5 to 1 µg/mL | MIC, Enterococcus faecium isolate 1 [11]: 1 µg/mL (≈ 0.662 µM) | MIC, Enterococcus faecium isolate 2 [11]: 0.5 µg/mL (≈ 0.331 µM) | MIC, Enterococcus faecium isolate 3 [11]: 0.5 µg/mL (≈ 0.331 µM) | MIC, Enterococcus faecium isolate 4 [11]: 0.5 µg/mL (≈ 0.331 µM) | MIC, Enterococcus faecium isolate 5 [11]: 0.5 µg/mL (≈ 0.331 µM) | MIC, Enterococcus faecium isolate 6 [11]: 0.5 µg/mL (≈ 0.331 µM) | MIC, Enterococcus faecium isolate 7 [11]: 0.5 µg/mL (≈ 0.331 µM) | MIC, Enterococcus faecium isolate 8 [11]: 0.5 µg/mL (≈ 0.331 µM) | MIC, Enterococcus faecium isolate 9 [11]: 0.5 µg/mL (≈ 0.331 µM) | MIC, Enterococcus faecium isolate 10 [11]: 0.5 µg/mL (≈ 0.331 µM) | MIC, Enterococcus faecium isolate 11 [11]: 0.5 µg/mL (≈ 0.331 µM) | MIC, Enterococcus faecium isolate 12 [11]: 0.5 µg/mL (≈ 0.331 µM) | MIC, Enterococcus faecium isolate 13 [11]: 0.5 µg/mL (≈ 0.331 µM) | MIC, Enterococcus faecium isolate 14 [11]: 0.5 µg/mL (≈ 0.331 µM) | MIC, Enterococcus faecium isolate 15 [11]: 0.5 µg/mL (≈ 0.331 µM) | MIC, Enterococcus faecium isolate 16 [11]: 0.5 µg/mL (≈ 0.331 µM) | MIC, Enterococcus faecium isolate 17 [11]: 0.5 µg/mL (≈ 0.331 µM) | MIC, Enterococcus faecium isolate 18 [11]: 0.5 µg/mL (≈ 0.331 µM) | MIC, Enterococcus faecium isolate 19 [11]: 0.5 µg/mL (≈ 0.331 µM) | MIC, Enterococcus faecium isolate 20 [11]: 0.5 µg/mL (≈ 0.331 µM) | MIC, Enterococcus faecium isolate 21 [11]: 0.5 µg/mL (≈ 0.331 µM) | MIC, Enterococcus faecium isolate 22 [11]: 0.5 µg/mL (≈ 0.331 µM) | MIC, Enterococcus faecium isolate 23 [11]: 0.5 µg/mL (≈ 0.331 µM) | MIC, Enterococcus faecium isolate 24 [11]: 0.5 µg/mL (≈ 0.331 µM) | MIC, Enterococcus faecium isolate 25 [11]: 0.5 µg/mL (≈ 0.331 µM) | MIC, Enterococcus faecium isolate 26 [11]: 0.5 µg/mL (≈ 0.331 µM) | MIC, S. aureus Mu50 (MRSA/VISA) [12]: 1 µg/mL (≈ 0.662 µM) | MIC, S. aureus Mu50 (MRSA/VISA) ([12]; listed as 1): 0.5 µg/mL (≈ 0.331 µM)
